{"source": "patent US8884007B2", "about": "“Hexenone compounds and medical use thereof” (Institute of Pharmacology and Toxicology Medical Sciences …, priority 2010, dated 2014)", "key": {"[1]": {"test_system": "TG-induced cardiomyocytes apoptosis", "assay": "Protection against TG-induced cardiomyocytes apoptosis (MTT)", "format": "cell-based, Wistar sucking mice", "method": "The isolation and culture of cardiomyocytes were performed by referring to the differential adhesion method (Kreider, A. Messing, H. Doan, S. U. Kim, R. P. Lisak and D. E. Pleasure, Enrichment of Schwann cell cultures from neonatal rat sciatic nerve by differential adhesion, Brain Res 2 (1981), pp. 433-444). Wistar sucking mice newborn within 24 h were used, sterilized at skin of ventrum with iodine tincture and ethanol, subjected to thoracotomy using scissors at subxiphoid median line with a deviation to left, heart was taken out after slant thoracotomy and placed in PBS precooled with ice; the heart was softly blown and beaten with 0.01M PBS to remove blood cells and other tissues, then cut into pieces with 0.5 mm^3 size, washed with 0.01M PBS repeatedly for 2-3 times; the pieces were placed in conical flask, added with 4 ml of 0.125% pancretin, 1 ml of 0.1% collagenase II (final concentrations separately being 0.1% and 0.02%), shaken in 37° C. water bath for 10 min, the supernatant was discarded; then 4 ml of 0.125% pancretin and 1 ml of 0.1% collagenase II again, shaken in 37° C. water bath for digestion for 10 min, the supernatant was sucked and transferred to a centrifuge tube, and the supernatant was added with DMEM containing 10% FBS to terminate digestion; the step of shaking and digestion in water bath was repeated for 3-4 times, until the tissue pieces were completely digested; the collected cell suspension was centrifuged under 1000 rpm for 10 min, the supernatant was removed, then a culture medium was added for resuspension; the resuspended cells were inoculated in a cell culture flask, placed in CO2 incubator at 37° C. for incubation for 1.5 h, then the culture medium was sucked out, countered under microscope, then DMEM culture medium containing 10% FBS was used to adjust cell density, inoculated in an amount of 1×10^4 to a 96-well plate, placed in 5% CO2 incubator at 37° C. for 24 h, then half medium was replaced, a culture medium containing 0.1% Brdu was supplementally added; then the medium was replaced once per 48 h, and primary cardiomyocytes were obtained after 4 days of cultivation.\nThe isolated primary culture of cardiomyocytes was inoculated in an amount of 10^4 cells per well to a 96-well plate, and the volume of each well was 100 ul (marginal wells were filled with sterile PBS). […] The optical density (OD) value of each well was measured at wavelength of 550 nm by enzyme-linked immunoassay instrument, and each well was repeatedly measured for 5 times and the results were recorded. […]"}, "primary cardiomyocytes": {"test_system": "primary cardiomyocytes", "assay": "Measurement of cell inhibition rate (MTT) on normal primary cardiomyocytes", "format": "cell-based, Wistar sucking mice", "method": "The isolation and culture of cardiomyocytes were performed by referring to the differential adhesion method (Kreider, A. Messing, H. Doan, S. U. Kim, R. P. Lisak and D. E. Pleasure, Enrichment of Schwann cell cultures from neonatal rat sciatic nerve by differential adhesion, Brain Res 2 (1981), pp. 433-444). […]\nThe isolated primary culture of cardiomyocytes was inoculated in an amount of 10^4 cells per well to a 96-well plate, and the volume of each well was 100 ul (marginal wells were filled with sterile PBS). […] The optical density (OD) value of each well was measured at wavelength of 550 nm by enzyme-linked immunoassay instrument, and each well was repeatedly measured for 5 times and the results were recorded."}}}
{"compound": "O=C(/C=C/c1ccccc1)CC(NC(=S)N1CCOCC1)C(Cl)(Cl)Cl", "note": "(stereo not shown) [Example 1, (1E)-1-phenyl-5-(1-morpholinylthiocarboxamido)-6,6,6-trichloro-1-ene-3-hexanone]", "values": [{"measurement": "Survival rate of cardiomyocytes (%)", "setting": "[1]; TG (0.4 uM) + compound 0.3 μM group, pretreatment 30 min before inducing apoptosis", "result": "76.3 ± 7.6", "unit": "%"}, {"measurement": "Survival rate of cardiomyocytes (%)", "setting": "[1]; TG (0.4 uM) + compound 1 μM group, pretreatment 30 min before inducing apoptosis", "result": "83.3 ± 7.1", "unit": "%"}, {"measurement": "Survival rate of cardiomyocytes (%)", "setting": "[1]; TG (0.4 uM) + compound 10 μM group, pretreatment 30 min before inducing apoptosis", "result": "92.2 ± 5.6", "unit": "%"}, {"measurement": "inhibition at 100 µM", "setting": "primary cardiomyocytes; Cardiomyocyte, 100 μM group, MTT, 48 h, normal primary cardiomyocytes, read-out: Inhibitive rate of cardiomyocytes (%)", "result": "2.91 ± 1.88", "unit": "%"}, {"measurement": "inhibition at 300 µM", "setting": "primary cardiomyocytes; Cardiomyocyte, 300 μM group, MTT, 48 h, normal primary cardiomyocytes, read-out: Inhibitive rate of cardiomyocytes (%)", "result": "0.76 ± 0.42", "unit": "%"}, {"measurement": "effect on survival rate of normal cardiomyocyte", "setting": "primary cardiomyocytes; concentration within 300 μM", "result": "no effect"}]}
{"compound": "C/C=C(/C)C(=O)O[C@H]1C(C)=C2[C@H]([C@@H]1OC(=O)CCCCCCC)[C@@](C)(OC(C)=O)C[C@H](OC(=O)CCC)[C@@]1(O)[C@H]2OC(=O)[C@@]1(C)O", "note": "[TG, thapsigargin, reference compound]", "values": [{"measurement": "Survival rate of cardiomyocytes (%)", "setting": "[1]; TG intervening group (0.4 uM), TG alone", "result": "59 ± 1.1", "unit": "%"}]}
